Results on seven compounds are retold here after ChEMBL document CHEMBL1799928, “New 2-thioether-substituted apomorphines as potent and selective dopamine D₂ receptor agonists” (Eur J Med Chem, 2011).

One assay has as its target D(1A) dopamine receptor (Homo sapiens, UniProt P21728). Nature of the assay: Displacement of [3H]SCH23390 from human D1 dopamine receptor expressed in Ltk fibroblast cells after 60 mins by liquid scintillation counter. It counts as cell-based. A general note: Loss of bound radioactivity is the signal in a displacement assay; it reports binding, not function.
Assay [1] has as its target T1, D(2) dopamine receptor (Rattus norvegicus, UniProt P61169). Kind of assay: Displacement of [3H]raclopride from rat D2 dopamine receptor expressed in CHOK1 cells after 90 mins by liquid scintillation counter scintillation counter. It counts as cell-based, CHO-K1.
Assay [2] can be described thus: Selectivity ratio of Ki for rat D2 dopamine receptor to Ki for human D1 dopamine receptor.
In assay [3] the target is T1, D(2) dopamine receptor. Nature of the assay: Agonist activity at rat D2 dopamine receptor expressed in CHOK1 cells assessed as [35S]GTPgammaS binding after 90 mins by liquid scintillation counter. It counts as functional, cell-based, CHO-K1. In general terms: Binding of GTPγS marks nucleotide exchange on a G protein.

Chain of D(1A) dopamine receptor (P21728 whole entry): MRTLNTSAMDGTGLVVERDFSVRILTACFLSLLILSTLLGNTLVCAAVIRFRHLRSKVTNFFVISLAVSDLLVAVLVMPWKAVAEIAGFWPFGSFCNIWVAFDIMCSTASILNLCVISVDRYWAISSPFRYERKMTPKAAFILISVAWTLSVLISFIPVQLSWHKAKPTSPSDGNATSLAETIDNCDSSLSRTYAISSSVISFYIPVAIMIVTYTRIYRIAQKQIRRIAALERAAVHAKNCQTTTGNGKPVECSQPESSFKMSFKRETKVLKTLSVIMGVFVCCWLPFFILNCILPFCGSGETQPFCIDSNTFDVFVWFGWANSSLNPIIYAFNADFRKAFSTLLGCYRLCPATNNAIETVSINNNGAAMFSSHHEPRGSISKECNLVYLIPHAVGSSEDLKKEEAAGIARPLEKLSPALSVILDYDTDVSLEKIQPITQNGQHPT
T1 sequence (P61169 whole entry): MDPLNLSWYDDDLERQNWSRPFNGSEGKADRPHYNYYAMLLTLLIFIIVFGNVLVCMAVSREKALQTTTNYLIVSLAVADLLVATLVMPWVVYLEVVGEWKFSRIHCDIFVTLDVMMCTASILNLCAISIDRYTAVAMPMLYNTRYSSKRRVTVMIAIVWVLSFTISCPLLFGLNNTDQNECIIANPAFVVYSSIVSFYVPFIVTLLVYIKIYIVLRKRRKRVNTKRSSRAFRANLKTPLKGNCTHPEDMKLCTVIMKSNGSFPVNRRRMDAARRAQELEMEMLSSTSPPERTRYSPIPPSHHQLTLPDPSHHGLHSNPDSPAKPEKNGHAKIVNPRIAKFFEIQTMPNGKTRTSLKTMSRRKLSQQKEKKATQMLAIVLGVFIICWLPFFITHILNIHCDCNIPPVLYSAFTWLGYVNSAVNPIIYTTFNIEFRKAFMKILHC

As for `CN1CCc2cc(SC[C@@H](N)C(=O)O)cc3c2[C@H]1Cc1ccc(O)c(O)c1-3`, the inhibition constant Ki (in general, the dissociation constant of the complex between target and ligand, obtained from inhibition or displacement) on D(1A) dopamine receptor was 0.141 µM.
`COC(=O)[C@@H](N)CSc1cc2c3c(c1)-c1c(ccc(O)c1O)C[C@H]3N(C)CC2`: the Ki worked out at 0.01 µM at D(2) dopamine receptor [1] and 0.38 µM at D(1A) dopamine receptor. In addition, the Ratio Ki in assay [2] was 38. Moreover, the EC50 (in general, the concentration giving half of the maximal effect) on D(2) dopamine receptor [3] was 0.024 µM.
As for `CN1CCc2cc(Sc3ccccc3)cc3c2[C@H]1Cc1ccc(O)c(O)c1-3`, the Ki at D(2) dopamine receptor [1] came to 0.58 µM; on D(1A) dopamine receptor, 2.2 µM. Moreover, in assay [2], the Ratio Ki was determined as 47. Besides, on D(2) dopamine receptor [3], the EC50 is 0.82 µM.
Turning to `CN1CCc2cc(SCCN)cc3c2[C@H]1Cc1ccc(O)c(O)c1-3`, the results for the Ki at D(2) dopamine receptor [1] and at D(1A) dopamine receptor were 0.0096 µM and 1.3 µM, respectively. Further, the Ratio Ki in assay [2] is 135. At D(2) dopamine receptor [3], the EC50 was found to be 0.016 µM.
On D(1A) dopamine receptor, `CN1CCc2cc(SC[C@H](N)C(=O)O)cc3c2[C@H]1Cc1ccc(O)c(O)c1-3` had a Ki of 4.2 µM.
For the compound `CN1CCc2cc(SCCC(=O)O)cc3c2[C@H]1Cc1ccc(O)c(O)c1-3`, the values for the Ki on D(2) dopamine receptor [1] and at D(1A) dopamine receptor were 0.4 µM and 0.15 µM, respectively. Moreover, the Ratio Ki in assay [2] stood at 0.4. Further, the EC50 at D(2) dopamine receptor [3] was 0.148 µM.
On the same counts, the results for `CN1CCc2c3c(cc4c2[C@H]1Cc1ccc(O)c(O)c1-4)SCCC3=O` are 0.415 µM, 0.14 µM, 0.3 and 0.383 µM.
